The numbers were not newly measured in patent publication US20240000793A1, “OPHTHALMIC COMPOSITION CONTAINING LEVOFLOXACIN AND KETOROLAC, METHOD FOR THE PREPARATION AND USE THEREOF” (NTC S.R.L., priority 2020, published 2024), which cites them from elsewhere.

The conditions of data set [1]: versus pH.
For data set [2] the following is noted: recent studies.

Take `O=C(c1ccccc1)c1ccc2n1CCC2C(=O)O` (centres unmarked) [Ketorolac tromethamine]: the Solubility profile entry in data set [1] is “pH dependent trend, significantly increasing at pH value>6.0”.

As to `C[C@H]1COc2c(N3CCN(C)CC3)c(F)cc3c(=O)c(C(=O)O)cn1c23` [Levofloxacin], the “Time in the eye at levels above the minimum inhibitory concentration (MIC)” value in data set [2] is on record as “more than six hours”.
